Assay results: US20120035203A1, “BUTACLAMOL FOR THE TREATMENT OF AMYOTROPHIC LATERAL SCLEROSIS” (CAMBRIA PHARMACEUTICALS, INC., priority 2009, published 2012)

Tests used:
[1] = tested on: PC12 cells that express mutant G93A SOD1 as a YFP fusion protein; experiment: high throughput cytotoxicity protection assay
Method: This idea was tested by examining the sensitivity of PC12 cells to SOD1 aggregates in the presence and absence of proteasome inhibitor MG132. PC12 cells expressing no SOD1, wild type SOD1, G85R SOD1 or G93A SOD1 were grown with or without MG132 (FIG. 1). […] The ability of protein aggregates to induce cell death was examined by treating G93A SOD1-expressing cells with MG132 for 24 h, removing the MG132 by washing and assaying cell viability after another 24 h.
PC12 cells expressing G93A SOD1 were treated with 100 nM MG132 with or without co-treatment with geldanamycin or radicicol.

[2] = tested on: rats with unilateral lesions in the substantia nigra; conditions: at 100 to 500 times larger doses than the (+) enantiomer; cited from earlier work
[3] = high doses; cited from earlier work

(−) butaclamol
activity in the protection assay [1]: only the eutomer (+butaclamol) showed activity | behavioral activity [2]: devoid of behavioral activity | effect on epinephrine-induced mortality [3]: devoid of any such activity
